Assay results reported in the Deep4Chem optical property database.
One block for each compound: values may come before it.

Assay: photoluminescence quantum yield (fraction); solvent given as SMILES

photoluminescence quantum yield (in ClCCl): 0.72
Structure (SMILES): CN(C)c1ccc(/C=C/c2cc(/C=C/c3ccc(N(C)C)cc3)nc(/C=C/c3ccc(C(F)(F)F)cc3)n2)cc1

photoluminescence quantum yield (in CO): 0.14
Structure (SMILES): C/C(=N\Nc1ccc(C#N)cc1)c1cccc(/C(C)=N/Nc2ccc(C#N)cc2)c1

photoluminescence quantum yield (in CCCCCC): 0.0014 | photoluminescence quantum yield (in CCO): 0.0012 | photoluminescence quantum yield (in CO): 0.001 | photoluminescence quantum yield (in ClCCl): 0.0014 | photoluminescence quantum yield (in c1ccccc1): 0.0015
Structure (SMILES): C(=C\c1cnc2ccccc2n1)/c1cnccn1

photoluminescence quantum yield (in CO): 0.56
Structure (SMILES): CCN(CC)c1ccc(C2=C3C(C)=CC(C)=[N+]3[B-](F)(F)n3c(C)cc(C)c32)cc1

photoluminescence quantum yield (in ClCCl): 0.83
Structure (SMILES): F[B-]1(F)OC(C#Cc2ccccc2)=C2CCc3ccccc3C2=[O+]1

photoluminescence quantum yield (in C1COCCO1): 0.024 | photoluminescence quantum yield (in CC#N): 0.009 | photoluminescence quantum yield (in CCOC(C)=O): 0.027 | photoluminescence quantum yield (in ClC(Cl)Cl): 0.037 | photoluminescence quantum yield (in c1ccccc1): 0.047
Structure (SMILES): CCOC(=O)c1sc2nc(-c3ccccc3)c(C)c(C#N)c2c1N

photoluminescence quantum yield (in ClCCl): 0.48
Structure (SMILES): Cc1cccc(-c2c3ccccc3cc3ccccc23)n1

photoluminescence quantum yield (in C1CCOC1): 0.5 | photoluminescence quantum yield (in CN1CCCC1=O): 0.2 | photoluminescence quantum yield (in CN(C)C=O): 0.6
Structure (SMILES): O=C1OC(=O)c2cc(Oc3ccccc3)c3c4ccc5c6c(cc(Oc7ccccc7)c(c7ccc1c2c73)c64)C(=O)OC5=O

photoluminescence quantum yield (in ClCCl): 0.33
Structure (SMILES): O=c1c2cc(C#Cc3ccc(Cl)cc3)ccc2nc2ccc(C#Cc3ccc(Cl)cc3)cn12

Structure (SMILES): C(=C\c1nc2ccccc2[nH]1)/c1ccc(/C=C/c2nc3ccccc3[nH]2)cc1
photoluminescence quantum yield (in C1CCOC1): 0.855 | photoluminescence quantum yield (in CC#N): 0.679 | photoluminescence quantum yield (in CC(C)=O): 0.609 | photoluminescence quantum yield (in CN(C)C=O): 0.775 | photoluminescence quantum yield (in CO): 0.738 | photoluminescence quantum yield (in CS(C)=O): 0.63

Structure (SMILES): CCCCCCc1ccc(-n2c3[n+](c4c5ccccc5c5ccccc5c42)[B-](C)(C)c2cc(-n4c5ccccc5c5ccccc54)ccc2-3)cc1
photoluminescence quantum yield (in C1CCOC1): 0.82 | photoluminescence quantum yield (in CC#N): 0.71 | photoluminescence quantum yield (in Cc1ccccc1): 0.76 | photoluminescence quantum yield (in ClCCl): 0.83

photoluminescence quantum yield (in ClCCl): 0.45
Structure (SMILES): CC1=C(c2ccccc2)Oc2cc3nc4ccccc4nc3c3cccc1c23

photoluminescence quantum yield (in ClC(Cl)Cl): 0.073
Structure (SMILES): CCCCCCN1C(=O)c2cccc3cc(/N=C\c4c[nH]c5c4ccc4ccccc45)cc(c23)C1=O

Structure (SMILES): CCn1c2ccccc2c2cc(/C=C3\C(=O)c4ccccc4S3(=O)=O)ccc21
photoluminescence quantum yield (in C1CCOC1): 0.029 | photoluminescence quantum yield (in C1COCCO1): 0.025 | photoluminescence quantum yield (in CC#N): 0.023 | photoluminescence quantum yield (in CC(C)=O): 0.042 | photoluminescence quantum yield (in CCOC(C)=O): 0.039 | photoluminescence quantum yield (in CN(C)C=O): 0.033 | photoluminescence quantum yield (in CO): 0.003 | photoluminescence quantum yield (in CS(C)=O): 0.083 | photoluminescence quantum yield (in Cc1ccccc1): 0.014 | photoluminescence quantum yield (in ClC(Cl)Cl): 0.04 | photoluminescence quantum yield (in ClCCl): 0.04

Structure (SMILES): CCCC1=Cc2nc1ccc1[nH]c(cc1CCC)c1nc(c(OC(C)=O)cc3[nH]c2cc3CCC)C(CCC)=C1
photoluminescence quantum yield (in Cc1ccccc1): 0.28

Structure (SMILES): O=Cc1cc(C=O)c2ccc3c(N4CCCCC4)cc(N4CCCCC4)c4ccc1c2c43
photoluminescence quantum yield (in C1COCCO1): 0.92 | photoluminescence quantum yield (in CC#N): 0.88 | photoluminescence quantum yield (in CC(C)=O): 0.9 | photoluminescence quantum yield (in CCCCCC): 0.93 | photoluminescence quantum yield (in CCO): 0.87 | photoluminescence quantum yield (in CCOC(C)=O): 0.93 | photoluminescence quantum yield (in CO): 0.83 | photoluminescence quantum yield (in CS(C)=O): 0.75 | photoluminescence quantum yield (in Cc1ccccc1): 0.94 | photoluminescence quantum yield (in ClCCl): 0.91

photoluminescence quantum yield (in O): 0.03
Structure (SMILES): COc1cc(C(=O)O)ccc1O

Structure (SMILES): c1ccc2c(c1)c1ccccc1n2-c1ccc(-c2nnc(-c3ccc(-n4c5ccccc5c5ccccc54)cc3)o2)cc1
photoluminescence quantum yield (in O=P(c1ccccc1)(c1ccccc1)c1ccccc1Oc1ccccc1P(=O)(c1ccccc1)c1ccccc1): 0.93

photoluminescence quantum yield (in c1cc(-c2cccc(-n3c4ccccc4c4ccccc43)c2)cc(-n2c3ccccc3c3ccccc32)c1): 0.89 | photoluminescence quantum yield (in c1ccc2c(c1)c1ccccc1n2-c1ccc2sc3ccc(-n4c5ccccc5c5ccccc54)cc3c2c1): 0.841 | photoluminescence quantum yield (in c1ccc2c(c1)c1ccccc1n2-c1ccc2sc3ccc(-n4c5ccccc5c5cccnc54)cc3c2c1): 0.982 | photoluminescence quantum yield (in c1ccc2c(c1)c1cccnc1n2-c1ccc2sc3ccc(-n4c5ccccc5c5cccnc54)cc3c2c1): 0.879
Structure (SMILES): Cc1cc(-n2c3ccccc3c3ccccc32)c(-n2c3ccccc3c3ccccc32)cc1C#N

Structure (SMILES): CCC1=C(C)C2=C(C)c3cc(I)cn3[B-](F)(F)[N+]2=C1C
photoluminescence quantum yield (in C1CCCCC1): 0.13 | photoluminescence quantum yield (in CC(C)=O): 0.087 | photoluminescence quantum yield (in CCO): 0.095 | photoluminescence quantum yield (in CCOC(C)=O): 0.097 | photoluminescence quantum yield (in CO): 0.086 | photoluminescence quantum yield (in OCC(F)(F)F): 0.075

photoluminescence quantum yield (in C1CCOC1): 0.02
Structure (SMILES): COC(=O)c1ccc(-c2ccc3c(c2)C(=O)c2cc(-c4ccc(C(=O)OC)cc4)ccc2-3)cc1

photoluminescence quantum yield (in CC#N): 0.42 | photoluminescence quantum yield (in CCCCCC): 0.25 | photoluminescence quantum yield (in CO): 0.12 | photoluminescence quantum yield (in CS(C)=O): 0.19 | photoluminescence quantum yield (in ClC(Cl)Cl): 0.36
Structure (SMILES): CCC1=C(C)C2=Cc3ccccc3B(O)N2C1=O

Structure (SMILES): Fc1c(F)c(-n2c3ccccc3c3ccccc32)c(F)c(F)c1-c1nnc(-c2ccccc2)o1
photoluminescence quantum yield (in Cc1ccccc1): 0.27

Structure (SMILES): N#CC(C#N)=Cc1ccc2c(c1)c1ccccc1n2-c1cc2ccccc2c2ccccc12
photoluminescence quantum yield (in CC#N): 0.09 | photoluminescence quantum yield (in CCCCC): 0.16 | photoluminescence quantum yield (in Cc1ccccc1): 0.16 | photoluminescence quantum yield (in ClCCl): 0.04

photoluminescence quantum yield (in ClC(Cl)Cl): 0.53
Structure (SMILES): CCCCCCCCn1c(=O)c2cc3c(C#Cc4ccc(N(c5ccccc5)c5ccccc5)cc4)c4cc5c(=O)n(CCCCCCCC)c(=O)c5cc4c(C#Cc4ccc(N(c5ccccc5)c5ccccc5)cc4)c3cc2c1=O

photoluminescence quantum yield (in ClCCl): 0.0127
Structure (SMILES): CC(C)(C)c1cc(-c2c3cc(c(-c4cc(C(C)(C)C)cc(C(C)(C)C)c4)c4ccc([nH]4)c(-c4ccc(Br)cc4)c4nc(c(-c5ccc(Br)cc5)c5ccc2[nH]5)C=C4)N=C3)cc(C(C)(C)C)c1

photoluminescence quantum yield (in CC#N): 0.024 | photoluminescence quantum yield (in CCCCCCO): 0.058 | photoluminescence quantum yield (in CCCCO): 0.042 | photoluminescence quantum yield (in CCCO): 0.033 | photoluminescence quantum yield (in CCO): 0.023 | photoluminescence quantum yield (in CO): 0.016 | photoluminescence quantum yield (in CS(C)=O): 0.055 | photoluminescence quantum yield (in OCC(O)CO): 0.36 | photoluminescence quantum yield (in OCCO): 0.075
Structure (SMILES): CCN1C(=CC=Cc2n(CC)c3cc(Cl)c(Cl)cc3[n+]2CC)N(CC)c2cc(Cl)c(Cl)cc21

photoluminescence quantum yield (in ClCCl): 0.72
Structure (SMILES): CN(C)c1ccc(-c2cc(-c3ccc(N(C)C)cc3)ncn2)cc1

Structure (SMILES): CON(OC)c1cc2c3cc(-c4c(C)cc(C)cc4C)cc4c5cc(-c6c(C)cc(C)cc6C)cc6c7cc(B(c8c(C)cc(C)cc8C)c8c(C)cc(C)cc8C)cc8c9cc(-c%10c(C)cc(C)cc%10C)cc%10c%11cc(-c%12c(C)cc(C)cc%12C)cc%12c(c1)c2c1c(c43)c(c65)c(c78)c(c9%10)c1c%11%12
photoluminescence quantum yield (in C1CCOC1): 0.46 | photoluminescence quantum yield (in CC(C)=O): 0.05 | photoluminescence quantum yield (in CCCCCC): 0.22 | photoluminescence quantum yield (in Cc1ccccc1): 0.42 | photoluminescence quantum yield (in ClC(Cl)Cl): 0.46 | photoluminescence quantum yield (in ClCCl): 0.56

Structure (SMILES): CC(C)(C)c1cc2c(c(C(C)(C)C)c1)O[B-](F)(F)[n+]1c-2nc(-c2ccccc2)c2cc(Cl)ccc21
photoluminescence quantum yield (in Cc1ccccc1): 0.001

photoluminescence quantum yield (in ClCCl): 0.43
Structure (SMILES): CC(=O)c1ccc(-c2cccc3ncc(-c4ccccc4)n23)cc1

photoluminescence quantum yield (in ClC(Cl)Cl): 0.74
Structure (SMILES): Cc1c2c(c(C)c3ccccc13)C1=C2C=CC2Nc3ccccc3NC12 (centres undefined)

photoluminescence quantum yield (in C1CCOC1): 0.457
Structure (SMILES): CC(C)(C)c1ccc(-c2c(-c3ccc4c5ccccc5n(-c5ccccc5)c4c3)c(C#N)c(-c3ccc4c5ccccc5n(-c5ccccc5)c4c3)c(-c3ccc(C(C)(C)C)cc3)c2-c2ccc(C(C)(C)C)cc2)cc1

photoluminescence quantum yield (in ClCCl): 0.91
Structure (SMILES): COc1ccc(/C=C/c2nc(/C=C/c3ccc(N(c4ccccc4)c4ccccc4)cc3)cc(/C=C/c3ccc(N(c4ccccc4)c4ccccc4)cc3)n2)cc1

photoluminescence quantum yield (in C1CCCCC1): 0.045 | photoluminescence quantum yield (in CC#N): 0.064 | photoluminescence quantum yield (in CCO): 0.0065 | photoluminescence quantum yield (in c1ccccc1): 0.19
Structure (SMILES): CNc1ccc2c(c1)-c1ccccc1C2=O

photoluminescence quantum yield (in C1CCCCC1): 0.51 | photoluminescence quantum yield (in CC#N): 0.19 | photoluminescence quantum yield (in ClC(Cl)Cl): 0.49
Structure (SMILES): c1cc2ccc1CCCc1ccc(c3nsnc13)CCC2

Structure (SMILES): c1ccc(-c2nnc(-c3ccccc3)n2-c2ccc(N3c4ccccc4N(c4ccccc4)c4ccccc43)cc2)cc1
photoluminescence quantum yield (in Cc1ccccc1): 0.03 | photoluminescence quantum yield (in c1cc(-n2c3ccccc3c3ccccc32)cc(-n2c3ccccc3c3ccccc32)c1): 0.12

photoluminescence quantum yield (in CC#N): 0.04
Structure (SMILES): O=c1oc2ccccc2cc1/C=C/c1ccc([N+](=O)[O-])cc1

photoluminescence quantum yield (in CC1CCCO1): 0.13
Structure (SMILES): O=c1cc2c(-c3c(O)c4cccc5ccc6oc(=O)cc3c6c54)c(O)c3cccc4ccc(o1)c2c43

photoluminescence quantum yield (in C1CCCCC1): 0.035 | photoluminescence quantum yield (in CC#N): 0.012 | photoluminescence quantum yield (in CCO): 0.00024 | photoluminescence quantum yield (in c1ccccc1): 0.074
Structure (SMILES): Nc1cccc2c1-c1ccccc1C2=O

photoluminescence quantum yield (in ClCCl): 0.52
Structure (SMILES): CCCCCCOc1cc(/C=C/c2cc(OCCCCCC)c(/C=C/c3cc(OCCCCCC)c(C=O)cc3OCCCCCC)cc2OCCCCCC)c(OCCCCCC)cc1C=O

photoluminescence quantum yield (in CC#N): 0.51 | photoluminescence quantum yield (in CO): 0.14 | photoluminescence quantum yield (in ClCCl): 0.63
Structure (SMILES): Cc1ccc(-c2[nH]c(=O)n3c2-c2ccccc2C3=O)c(O)c1

photoluminescence quantum yield (in ClC(Cl)Cl): 0.37
Structure (SMILES): CC(=O)OCCN1C(=O)c2cccc3c(Oc4ccc(C#N)cc4)ccc(c23)C1=O

Structure (SMILES): CCN(CC)c1ccc(-c2ccc(-c3nc(N4CCOCC4)c4ccccc4n3)s2)cc1
photoluminescence quantum yield (in CC#N): 0.23 | photoluminescence quantum yield (in Cc1ccccc1): 0.67

Structure (SMILES): Cc1ccc(C2=C3C=CC(/C=C/c4ccccc4)=[N+]3[B-](F)(F)n3c(Cl)ccc32)cc1
photoluminescence quantum yield (in C1CCCCC1): 0.72 | photoluminescence quantum yield (in C1CCOC1): 0.56 | photoluminescence quantum yield (in C1COCCO1): 0.6 | photoluminescence quantum yield (in CCOC(C)=O): 0.57 | photoluminescence quantum yield (in CO): 0.55 | photoluminescence quantum yield (in Cc1ccccc1): 0.69 | photoluminescence quantum yield (in ClC(Cl)Cl): 0.68

photoluminescence quantum yield (in CC#N): 0.057
Structure (SMILES): N#C/C(=C\c1ccc(C(F)(F)F)cc1)c1nc(-c2ccc(Cl)cc2)cs1

photoluminescence quantum yield (in C1CCOC1): 0.12 | photoluminescence quantum yield (in CO): 0.05
Structure (SMILES): CCOC(=O)C1=CN(c2ccccc2)C=CC1c1ccccc1 (centres undefined)

photoluminescence quantum yield (in CN(C)C=O): 0.7 | photoluminescence quantum yield (in ClC(Cl)Cl): 0.85
Structure (SMILES): COc1cc2c(cc1OC)C1=C3C(=O)N4C=Cc5cc(OC)c(OC)cc5C4=C3C(=O)N1C=C2

photoluminescence quantum yield (in ClCCl): 0.43
Structure (SMILES): CN(C)c1ccc(C#Cc2cc(C#Cc3ccc(C(F)(F)F)cc3)c3ccc4c(C#Cc5ccc(C(F)(F)F)cc5)cc(C#Cc5ccc(C(F)(F)F)cc5)c5ccc2c3c54)cc1
